{"source": "ChEMBL document CHEMBL1122549", "about": "“Opioid agonists and antagonists. 6,6-Hydrazi and 6-oximino derivatives of 14-hydroxydihydromorphinones” (1984)", "type_in_all_cases": "functional", "key": {"Mus musculus [1]": {"test_system": "Mus musculus", "experiment": "Compound was evaluated in vivo for the antagonist activity by the tail flick assay using morphine as the agonist in mice"}, "Mus musculus [2]": {"test_system": "Mus musculus", "experiment": "Compound was evaluated in vivo for the agonist activity after subcutaneous administration as aqueous solutions of HCl salt in mice using Hot plate assay", "settings": "sc"}, "Mus musculus [3]": {"test_system": "Mus musculus", "experiment": "Compound was evaluated in vivo for the agonist activity after subcutaneous administration as aqueous solutions of HCl salt in mice using Nilsen assay", "settings": "sc"}, "Mus musculus [4]": {"test_system": "Mus musculus", "experiment": "Compound was evaluated in vivo for the agonist activity after subcutaneous administration as aqueous solutions of HCl salt in mice using Phenylquinone (PPQ) writhing assay", "settings": "sc"}, "Mus musculus [5]": {"test_system": "Mus musculus", "experiment": "Compound was evaluated in vivo for the agonist activity after subcutaneous administration as aqueous solutions of HCl salt in mice using Tail flick assay", "settings": "sc"}, "Mus musculus [6]": {"test_system": "Mus musculus", "experiment": "Compound was evaluated in vivo for the antagonist activity by the tail flick assay using morphine as the agonist in mice."}, "Mus musculus [7]": {"test_system": "Mus musculus", "experiment": "Compound was evaluated in vivo for the agonist activity after subcutaneous administration as aqueous solutions of HCl salt in mice using Nilsen assay.", "settings": "sc"}}}
{"molecule": "CO/N=C1\\CCC2(O)C3Cc4ccc(O)c5c4C2(CCN3CC2CC2)C1O5", "note": "(centres undefined)", "values": [{"measurement": "ED50", "setting": "Mus musculus [1]", "value": 0.08, "unit": "mg/kg"}]}
{"molecule": "CN1CCC23c4c5ccc(O)c4OC2C2(CCC3(O)C1C5)NN2", "note": "(centres undefined)", "values": [{"measurement": "ED50", "setting": "Mus musculus [2]", "value": 0.81, "unit": "mg/kg"}, {"measurement": "ED50", "setting": "Mus musculus [3]", "value": 2, "unit": "mg/kg"}, {"measurement": "ED50", "setting": "Mus musculus [4]", "value": 0.05, "unit": "mg/kg"}, {"measurement": "ED50", "setting": "Mus musculus [5]", "value": 0.7, "unit": "mg/kg"}]}
{"molecule": "Oc1ccc2c3c1OC1C4(CCC5(O)C(C2)N(CC2CC2)CCC315)NN4", "note": "(centres undefined)", "values": [{"measurement": "ED50", "setting": "Mus musculus [6]", "value": 0.02, "unit": "mg/kg"}]}
{"molecule": "CN1CCC23c4c5ccc(O)c4OC2/C(=N/O)CCC3(O)C1C5", "note": "(centres undefined)", "values": [{"measurement": "ED50", "setting": "Mus musculus [2]", "value": 0.56, "unit": "mg/kg"}, {"measurement": "ED50", "setting": "Mus musculus [7]", "value": 0.45, "unit": "mg/kg"}, {"measurement": "ED50", "setting": "Mus musculus [4]", "value": 0.1, "unit": "mg/kg"}, {"measurement": "ED50", "setting": "Mus musculus [5]", "value": 2.2, "unit": "mg/kg"}]}
{"molecule": "O/N=C1\\CCC2(O)C3Cc4ccc(O)c5c4C2(CCN3CC2CC2)C1O5", "note": "(centres undefined)", "values": [{"measurement": "ED50", "setting": "Mus musculus [6]", "value": 0.08, "unit": "mg/kg"}]}
{"molecule": "C=CCN1CCC23c4c5ccc(O)c4OC2/C(=N/O)CCC3(O)C1C5", "note": "(centres undefined)", "values": [{"measurement": "ED50", "setting": "Mus musculus [1]", "value": 0.06, "unit": "mg/kg"}]}
{"molecule": "CO/N=C1\\CCC2(O)C3Cc4ccc(O)c5c4C2(CCN3C)C1O5", "note": "(centres undefined)", "values": [{"measurement": "ED50", "setting": "Mus musculus [2]", "value": 0.22, "unit": "mg/kg"}, {"measurement": "ED50", "setting": "Mus musculus [4]", "value": 0.02, "unit": "mg/kg"}, {"measurement": "ED50", "setting": "Mus musculus [5]", "value": 0.08, "unit": "mg/kg"}]}
{"molecule": "C=CCN1CCC23c4c5ccc(O)c4OC2/C(=N/OC)CCC3(O)C1C5", "note": "(centres undefined)", "values": [{"measurement": "ED50", "setting": "Mus musculus [1]", "value": 1.9, "unit": "mg/kg"}]}
{"molecule": "CN1CC[C@]23c4c5ccc(O)c4O[C@H]2[C@@H](O)CC[C@H]3[C@H]1C5.Cl", "values": [{"measurement": "ED50", "setting": "Mus musculus [2]", "value": 0.19, "unit": "mg/kg"}, {"measurement": "ED50", "setting": "Mus musculus [7]", "value": 0.2, "unit": "mg/kg"}]}
{"molecule": "Cl.O=C1CC[C@@]2(O)[C@H]3Cc4ccc(O)c5c4[C@@]2(CCN3CC2CC2)[C@H]1O5", "note": "[NALTREXONE HYDROCHLORIDE]", "values": [{"measurement": "ED50", "setting": "Mus musculus [6]", "value": 0.007, "unit": "mg/kg"}]}
